The values that follow come from patent US20110151020A1, “ACTIVE SUBSTANCE COMBINATION WITH GEMCITABINE FOR THE TREATMENT OF EPITHELIAL CANCER” (priority 2008, published 2011).

Experiment [1] concerns primary human pancreatic cancer tissue. As to the kind of experiment: In vivo treatment of implanted patient pancreatic tumor tissue with gemcitabine plus SB431542. More on the design: species or system mice. The note with it: treatment from day 7, assessed day 28. On the procedure:
FIG. 33: In vivo treatment with the Alk4/7 inhibitor SB431542. This illustrates Nodal/Activin inhibition to eliminate primary human pancreatic CSC in vivo. Tumor tissue from patient with pancreatic cancer was implanted into immunocompromised mice. Treatment was started on day 7 after implantation. Mice were randomized to gemcitabine alone or gemcitabine plus SB431542. Tumor growth was assessed on day 28.

In experiment [2] the test system is L3.6pl orthotopic pancreatic tumours. Description: In vivo treatment of established orthotopic pancreatic cancer (Gemcitabine, Cyclopamine, Rapamycin). On the procedure: Gemcitabine was administered twice a week by intraperitoneal injections at 125 mg/kg BW.
In order to test the identified combination therapy in a clinically most relevant setting, a model of established orthotopic pancreatic cancer was used in this experiment. […] The detailed experimental setup is depicted in FIG. 21A. […] Gemcitabine was given for a prolonged period of 11 weeks in analogy to clinical practice. Tumour volume was non-invasively measured on day 42 using a caliper (FIG. 21B), and was controlled via MR imaging on day 49 (FIG. 21C).
Animals and Orthotopic Implantation of Tumour Cells. Single-cell suspensions were orthotopically implanted into the pancreas of female NMRI nu/nu mice (Janvier, Le Genest-Saint-Isle, France) (Hermann et al., 2007, supra). Size and weight of the pancreatic tumours were monitored.
In vivo treatment of established pancreatic cancers. Seven days after orthotopic implantation of L3.6pl cells, mice were randomized to the respective treatment groups. Gemcitabine was administered biweekly (125 mg/kg i.p.). […] Rapamycin (5 mg/kg/day; Wyeth, Madison, N.J.) was orally administered via the drinking water as reported previously (Huber et al., 2007, supra).

In experiment [3] the test system is side population (SP) cells. Description: Side population (Hoechst 33342 exclusion). It counts as cell-based, human. Here is the method:
(§1) First, pancreatic CSC were clonally expanded as CSC-enriched spheres (FIGS. 18C1-18C5). Floating spheres were treated in ultra low adhesion 6-well plates. After completion of the treatment, five randomly selected high-power fields were analyzed.

The subject of experiment [4] is CD133+ pancreatic cancer stem cells (L3.6pl cells). As to the kind of experiment: CD133 content by flow cytometry in L3.6pl pancreatic cancer cells. Type of experiment: cell-based, human. The settings on record: 48 hours of therapy; Gemcitabine 100 ng/ml. Here is the method: In this experiment, potentially effective substances for the targeted elimination of CD133^+ pancreatic cancer stem cells (CSC) were screened by means of flow cytometry following 48 hours of therapy. […] As a Gemcitabine concentration of 100 ng/ml was the lowest concentration capable of achieving a strong relative enrichment for CD133^+ cells through depletion of CD133^− cells, this concentration was chosen for subsequent experiments.
(§2) Human pancreatic cancer cell line. The highly metastatic human pancreatic cell line L3.6pl was maintained in DMEM medium (Invitrogen, Karlsruhe, Germany) with 12% Fetal Calf Serum (Biochrom, Berlin, Germany), Glutamax (Invitrogen), non-essential amino acids, and vitamins (all from PAN, Aidenbach, Germany) (Hermann et al., 2007, supra). Cultures were kept no longer than 4 weeks after recovery from frozen stocks. CSC spheres were cultured in DMEM-F12 supplemented with B27 (Gibco, Karlsruhe, Germany) and FGF-2 (PeproTech EC, London, United Kingdom) (Hermann et al., 2007, supra).
Cytometry. Pancreatic CSC were identified by CD133/1-APC or CD133-PE (Miltenyi, Bergisch-Gladbach, Germany) (Hermann et al., 2007, supra). Side population experiments were performed as described by Goodell et al. (1996) (see Goodell et al., 1996, J Exp Med 183, 1797-1806) and cells were identified by exclusion of the vital dye Hoechst 33342. To detect activation of the PI3K/Akt/mTOR pathway by means of the phosphorylation status of the s6 ribosomal protein (s6rp), cells cultivated with standard medium were stained with a rabbit anti-phospho-S6 ribosomal protein antibody (Cell Signalling Technology, Danvers, Mass.).
(§3) In vitro treatment of pancreatic cancer cells. […] For the evaluation of the in vivo tumorigenicity, […] L3.6pl cells were pretreated with the respective regimen and the remaining viable cells were orthotopically implanted into the pancreas of nude mice and evaluated on day 35. For the systemic infusion assay, cells were labelled with the Qtracker 800 labelling kit (Invitrogen) according to the manufacturer's instructions, and 5×10^5 cells were injected intravenously into mice. After 4 weeks, explanted lungs were scanned for metastases with a near-infrared imaging platform (Odyssey, Li-cor, Lincoln, Nebr.). Positive signals were verified by histology (H&E staining).
Using SB431542, a specific inhibitor of the receptors for Nodal and Activin, ALK-4 and -7 respectively, it was investigated whether the content of the CD133(+) population is affected by inhibition of Activin/Nodal signaling. As mutations affecting the TGF-superfamily pathway are very common in pancreatic neoplasms, pancreatic cell lines harboring different mutations in this pathway were screened (Table 1).

For another experiment, the system named is pancreatic CSC spheres. Description: CSC-enriched tumour sphere assay. It counts as cell-based, human. The note with it: ultra low adhesion 6-well plates. Here is the method:
as §1, §2

In experiment [5] the test system is primary human pancreatic cancer tissue. Description: In vivo triple combination treatment of implanted patient pancreatic tumor tissue. More on the design: species or system mice. The note with it: treatment from day 21; assessed up to 100 days.
Experimental: Tumor tissue from patient with pancreatic cancer was implanted into immunocompromised mice. Treatment was started on day 21 after implantation. Mice were randomized to gemcitabine alone or combination therapy. Tumor growth was assessed up to 100 days.
Experiment [6] concerns orthotopically implanted tumour cells. Description: In vivo treatment of orthotopic tumours with Gemcitabine and SB431542. More on the design: species or system mice. On the procedure: Seven days after orthotopic implantation of tumour cells, therapy with either Gemcitabine alone or in combination with targeted Nodal/Activin inhibition by SB431542 was initiated. The double combination therapy was stopped after 14 days of treatment, the single Gemcitabine treatment was continued until sacrifice of the animals. 35 days after tumour cell treatment, PET scans were done and evaluation of tumour volume was performed on day 42.

Experiment [7] has as its system CD133+ CXCR4+ CSC subpopulation. Description: Flow cytometry of migrating CSC. Type of experiment: cell-based, human. For orientation: A flow cytometer gives signals particle by particle.
The test system of another experiment is pancreatic cancer cells. As to the kind of experiment: Transmigration assay (modified Boyden chamber, SDF-1 stimulus). Type of experiment: cell-based, human. The note with it: SDF-1 as migratory stimulus.
In experiment [8] the test system is pretreated Qtracker-labeled pancreatic cancer cells. As to the kind of experiment: Systemic infusion assay of pretreated cells (lung metastasis). The note with it: cells pretreated in vitro, systemically infused; lungs scanned. It counts as in vivo, mice.
Text: Recently, the inventors have shown that the chemokine receptor CXCR4 and its specific lig- and Stromal-Derived Factor-1 (SDF-1) plays a pivotal role in metastasis of pancreatic CSC (see Hermann et al., 2007, supra). […] Pretreated and Qtracker-labeled cells were systemically infused. Seeded cells were tracked using near infrared scanning of the lungs as the primary target organ. Positive signals were confirmed by histological analysis.
as §3

As to `Nc1ccn(C2OC(CO)C(O)C2(F)F)c(=O)n1` (stereo not shown) [Gemcitabine, 4-amino-1-[3,3-difluoro-4-hydroxy-5-(hydroxymethyl)tetrahydrofuran-2-yl]-1H-pyrimidin-2-one], in experiment [1], the “tumor response / regression” value was “strong response”. Also, the “prolongation of median survival” value in [2] (Gemcitabine 125 mg/kg i.p. twice a week) is 22 days. Moreover, the survival result in [2] (Gemcitabine vs control, CRG vs Gemcitabine alone) is on record as “significantly prolonged”. Also, the tumour size result in experiment [2] (compared to control) was “significantly smaller compared to control”. The “tumour volume on day 42 (caliper)” value in experiment [2] (day 42) was “considerable tumor size”. Further, in experiment [2] (day 49), the “tumour volume via MR imaging on day 49” value is “considerable tumor size”. Moreover, in experiment [2] (mouse, in vivo), the “latest day of survival” value is no more than 71 days, the median survival is listed as 57 days and the tumour take rate came to 100%. Moreover, in experiment [2] (orthotopic mouse model of xenotransplanted human pancreatic cancer), the “CD133+ cells in the residual tumour tissue” value is reported as “significant enrichment”. Moreover, the “side population (SP) cells” value in [3] was “unaffected”. Besides, the “CD133+ cell content” value in experiment [4] is recorded as “marked enrichment”. In addition, in the experiment with pancreatic CSC spheres, the “tumour spheres / CD133+ cells in CSC-enriched spheres” value was “marked relative increase of CD133^+ cells”. Moreover, the tumor growth entry in [5] is recorded as “virtually unrestricted growth”. The tumour size entry in experiment [6] (mouse, in vivo) is given as “reduction of tumour size”. Moreover, the “tumour formation / tumour incidence” value in experiment [6] (therapy from day 7, combination 14 days, PET day 35, volume day 42) is given as “unaffected”. The “CD133+ CXCR4+ migrating CSC” value in experiment [7] was “enriches”. The migratory activity result in the experiment on pancreatic cancer cells is recorded as “unable to significantly reduce”. Besides, the “metastatic activity in vivo” value in [8] was “all mice receiving Gemcitabine-pretreated cells showed evidence for metastasis”.
